Source: patent US20240269139A1, “COMPOUNDS FOR TARGETED PROTEIN DEGRADATION OF KINASES” (DANA-FARBER CANCER INSTITUTE, INC., priority 2020, published 2024)
Read-outs that look alike come from different tables or passages of the source.

Columns and labels:
Format in all cases: cell-based
[1] = target: protein kinases (human kinome) (Homo sapiens, UniProt Q9H3S4); conditions: TPK1 (Q9H3S4); experiment wp114
[2] = target: T1, protein kinases (human kinome) (Homo sapiens, UniProt Q96D53); conditions: experiment wp137; for logFC: COQ8B (Q96D53-1)
T1 sequence (Q96D53 1-544): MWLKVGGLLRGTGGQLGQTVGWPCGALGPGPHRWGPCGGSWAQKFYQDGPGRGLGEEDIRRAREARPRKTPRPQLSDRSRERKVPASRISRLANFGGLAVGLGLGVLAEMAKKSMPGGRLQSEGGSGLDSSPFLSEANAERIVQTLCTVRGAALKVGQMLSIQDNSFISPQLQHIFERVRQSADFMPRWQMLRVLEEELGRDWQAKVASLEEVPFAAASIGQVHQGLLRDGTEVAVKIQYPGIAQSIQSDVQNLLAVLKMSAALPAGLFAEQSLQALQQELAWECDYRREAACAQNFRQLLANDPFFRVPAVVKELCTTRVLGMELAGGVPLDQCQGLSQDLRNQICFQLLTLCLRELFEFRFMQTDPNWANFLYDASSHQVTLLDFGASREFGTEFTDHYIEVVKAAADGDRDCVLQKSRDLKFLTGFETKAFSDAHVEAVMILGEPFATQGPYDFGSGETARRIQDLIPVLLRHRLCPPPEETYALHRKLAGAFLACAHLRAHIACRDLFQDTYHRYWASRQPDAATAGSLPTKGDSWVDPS

[3] = target: protein kinases (human kinome) (Homo sapiens, UniProt Q13882); conditions: for logFC PTK6 (Q13882): Experiment wp114, direction of change down; for logFC: PTK6 (Q13882), experiment wp114
protein kinases (human kinome) (Homo sapiens, UniProt Q13882), sequence (Q13882 whole entry): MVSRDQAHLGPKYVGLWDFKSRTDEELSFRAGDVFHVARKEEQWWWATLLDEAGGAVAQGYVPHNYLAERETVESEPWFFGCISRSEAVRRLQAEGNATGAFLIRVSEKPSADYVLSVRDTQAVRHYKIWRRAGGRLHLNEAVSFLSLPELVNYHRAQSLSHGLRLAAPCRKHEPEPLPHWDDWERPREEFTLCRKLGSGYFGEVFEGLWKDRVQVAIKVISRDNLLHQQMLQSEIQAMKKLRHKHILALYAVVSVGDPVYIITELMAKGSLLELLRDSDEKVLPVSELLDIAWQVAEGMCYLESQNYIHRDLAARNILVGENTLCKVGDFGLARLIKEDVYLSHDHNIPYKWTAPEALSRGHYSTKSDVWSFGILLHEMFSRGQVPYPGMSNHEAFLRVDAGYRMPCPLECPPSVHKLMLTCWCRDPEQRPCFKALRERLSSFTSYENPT

[4] = target: protein kinases (human kinome) (Homo sapiens, UniProt O75676); conditions: for logFC: RPS6KA4 (O75676)
protein kinases (human kinome) (Homo sapiens, UniProt O75676), sequence (O75676 whole entry): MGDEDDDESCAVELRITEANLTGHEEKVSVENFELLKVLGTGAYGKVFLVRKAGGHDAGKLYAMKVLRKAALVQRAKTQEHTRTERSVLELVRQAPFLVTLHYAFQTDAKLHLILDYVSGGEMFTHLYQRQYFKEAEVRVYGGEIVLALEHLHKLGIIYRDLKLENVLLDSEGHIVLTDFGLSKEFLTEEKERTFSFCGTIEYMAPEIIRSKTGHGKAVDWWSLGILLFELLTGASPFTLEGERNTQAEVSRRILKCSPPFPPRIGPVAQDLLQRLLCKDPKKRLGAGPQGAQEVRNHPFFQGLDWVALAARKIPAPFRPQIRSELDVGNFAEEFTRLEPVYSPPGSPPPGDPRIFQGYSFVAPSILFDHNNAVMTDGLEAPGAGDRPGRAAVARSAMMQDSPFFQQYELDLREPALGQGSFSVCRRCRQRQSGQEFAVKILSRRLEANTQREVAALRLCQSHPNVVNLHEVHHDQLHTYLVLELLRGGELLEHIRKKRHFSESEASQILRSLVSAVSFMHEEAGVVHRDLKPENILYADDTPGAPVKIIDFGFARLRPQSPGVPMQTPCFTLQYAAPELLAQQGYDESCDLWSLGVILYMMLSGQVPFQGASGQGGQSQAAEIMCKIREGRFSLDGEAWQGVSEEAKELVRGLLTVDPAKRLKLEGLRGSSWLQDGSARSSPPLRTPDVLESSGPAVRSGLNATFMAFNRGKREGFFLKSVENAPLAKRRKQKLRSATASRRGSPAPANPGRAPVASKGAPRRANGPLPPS

[5] = target: protein kinases (human kinome) (Homo sapiens, UniProt Q9Y243); conditions: AKT3 (Q9Y243-1)
protein kinases (human kinome) (Homo sapiens, UniProt Q9Y243), sequence (Q9Y243 whole entry): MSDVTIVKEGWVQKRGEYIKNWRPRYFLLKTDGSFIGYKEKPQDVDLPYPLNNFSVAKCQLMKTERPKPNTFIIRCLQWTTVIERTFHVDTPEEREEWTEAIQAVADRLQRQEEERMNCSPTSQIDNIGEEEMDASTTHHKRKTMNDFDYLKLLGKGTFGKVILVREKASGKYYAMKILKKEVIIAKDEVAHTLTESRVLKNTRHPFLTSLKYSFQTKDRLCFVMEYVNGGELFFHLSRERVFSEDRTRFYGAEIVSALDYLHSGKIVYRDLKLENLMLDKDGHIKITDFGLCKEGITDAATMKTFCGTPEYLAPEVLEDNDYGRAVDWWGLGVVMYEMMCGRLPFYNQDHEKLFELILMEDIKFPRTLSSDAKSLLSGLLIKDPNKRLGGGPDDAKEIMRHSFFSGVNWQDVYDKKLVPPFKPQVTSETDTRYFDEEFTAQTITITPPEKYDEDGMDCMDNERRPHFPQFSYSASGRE

[6] = target: T2, protein kinases (human kinome) (Homo sapiens, UniProt P51955); conditions: NEK2 (P51955)
T2 sequence (P51955 1-445): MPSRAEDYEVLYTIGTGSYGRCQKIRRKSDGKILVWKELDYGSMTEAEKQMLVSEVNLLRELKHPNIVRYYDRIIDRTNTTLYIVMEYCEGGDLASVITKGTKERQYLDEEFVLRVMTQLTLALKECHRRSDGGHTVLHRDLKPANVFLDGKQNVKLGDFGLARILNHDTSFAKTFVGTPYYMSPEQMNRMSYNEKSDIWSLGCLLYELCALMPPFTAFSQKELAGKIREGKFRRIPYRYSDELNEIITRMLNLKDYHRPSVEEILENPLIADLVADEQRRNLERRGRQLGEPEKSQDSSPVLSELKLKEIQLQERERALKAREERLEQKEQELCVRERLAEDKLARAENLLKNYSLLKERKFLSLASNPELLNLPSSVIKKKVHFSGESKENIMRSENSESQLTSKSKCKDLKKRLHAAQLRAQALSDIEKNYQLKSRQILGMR

[7] = target: protein kinases (human kinome) (Homo sapiens, UniProt P36894); conditions: for logFC: BMPR1A (P36894)
protein kinases (human kinome) (Homo sapiens, UniProt P36894), sequence (P36894 24-532): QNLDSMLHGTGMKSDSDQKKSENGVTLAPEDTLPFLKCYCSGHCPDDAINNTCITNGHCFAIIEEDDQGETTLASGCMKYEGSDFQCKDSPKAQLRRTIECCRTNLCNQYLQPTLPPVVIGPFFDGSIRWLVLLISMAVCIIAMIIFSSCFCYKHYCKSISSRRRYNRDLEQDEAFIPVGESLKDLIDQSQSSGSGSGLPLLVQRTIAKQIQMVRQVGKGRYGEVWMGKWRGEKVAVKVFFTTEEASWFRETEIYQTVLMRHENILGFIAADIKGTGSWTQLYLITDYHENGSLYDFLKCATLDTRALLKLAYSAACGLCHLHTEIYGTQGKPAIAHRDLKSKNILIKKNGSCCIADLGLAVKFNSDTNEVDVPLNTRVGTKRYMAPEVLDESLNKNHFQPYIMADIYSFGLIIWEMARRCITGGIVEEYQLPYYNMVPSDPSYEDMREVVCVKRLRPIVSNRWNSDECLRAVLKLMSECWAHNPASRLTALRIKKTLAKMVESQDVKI

[8] = target: T3, protein kinases (human kinome) (Homo sapiens, UniProt Q9Y616); conditions: experiment wp146; for logFC: IRAK3 (Q9Y616)
T3 sequence (Q9Y616 1-596): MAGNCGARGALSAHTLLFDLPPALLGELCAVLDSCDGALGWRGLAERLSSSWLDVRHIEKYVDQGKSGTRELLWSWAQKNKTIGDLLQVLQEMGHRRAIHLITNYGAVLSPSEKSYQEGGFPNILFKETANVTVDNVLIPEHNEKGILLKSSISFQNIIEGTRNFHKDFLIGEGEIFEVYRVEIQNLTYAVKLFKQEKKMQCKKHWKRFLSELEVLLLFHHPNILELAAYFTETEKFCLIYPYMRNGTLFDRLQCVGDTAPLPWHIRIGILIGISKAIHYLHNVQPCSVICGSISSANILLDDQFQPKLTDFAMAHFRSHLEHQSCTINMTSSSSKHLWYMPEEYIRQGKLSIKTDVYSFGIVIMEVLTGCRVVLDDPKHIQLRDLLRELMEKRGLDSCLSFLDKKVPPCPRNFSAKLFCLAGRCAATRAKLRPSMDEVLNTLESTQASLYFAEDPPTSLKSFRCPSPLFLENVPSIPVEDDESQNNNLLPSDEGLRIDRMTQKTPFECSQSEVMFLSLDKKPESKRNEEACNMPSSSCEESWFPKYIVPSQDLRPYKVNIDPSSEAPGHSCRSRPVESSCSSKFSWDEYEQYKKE

[9] = experiment wp105, direction down

protein kinases (human kinome) (Homo sapiens, UniProt Q9H3S4), sequence (Q9H3S4 whole entry): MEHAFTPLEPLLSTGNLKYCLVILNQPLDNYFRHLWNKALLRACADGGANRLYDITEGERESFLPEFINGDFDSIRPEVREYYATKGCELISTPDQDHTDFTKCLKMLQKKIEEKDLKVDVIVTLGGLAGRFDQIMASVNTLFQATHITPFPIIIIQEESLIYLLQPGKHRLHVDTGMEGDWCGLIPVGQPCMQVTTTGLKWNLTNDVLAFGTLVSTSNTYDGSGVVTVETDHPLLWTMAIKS

SMILES: Cc1ccc(NC(=O)c2cccc(C(F)(F)F)c2)cc1N1Cc2cnc(Nc3ccc(N4CCN(Cc5cn(CCCCCOc6cccc7c6C(=O)N(C6CCC(=O)NC6=O)C7=O)nn5)CC4)nc3)nc2N(C)C1=O (stereo not shown) [DB0646, N-(3-(7-((6-(4-((1-(5-((2-(2,6-Dioxopiperidin-3-yl)-1,3-dioxoisoindolin-4-yl)oxy)pentyl)-1H-1,2,3-triazol-4-yl)methyl)piperazin-1-v)pyridin-3-yl)amino)-1-methyl-2-oxo-1,4-dihydropyrimido[4,5-d]pyrimidin-3(2H)-yl)-4-methylphenyl)-3-(trifluoromethyl)benzamide]
- logFC [1]: −1.144

SMILES: CC(C)(C)c1nc(-c2cccc(NS(=O)(=O)c3c(F)cccc3F)c2F)c(-c2ccnc(NCCOCCNC(=O)CCOCCOCCNc3cccc4c3C(=O)N(C3CCC(=O)NC3=O)C4=O)n2)s1 (stereo not shown) [DD.03.106]
- logFC [2]: −0.3442
- logFC of COQ8B (Q96D53-1) [2]: −0.3442

SMILES: Cc1ncsc1-c1ccc([C@H](C)NC(=O)[C@@H]2C[C@@H](O)CN2C(=O)[C@@H](NC(=O)CCOCCOCCN2CCN(c3ccc(Nc4ncc(Cl)c(Nc5ccccc5S(=O)(=O)C(C)C)n4)cc3)CC2)C(C)(C)C)cc1 [FMF.06.098.1]
- logFC [1]: −0.8744
- logFC PTK6 (Q13882) [3]: −0.4401
- logFC [3]: −0.4401
- logFC of RPSGKA4 (O75676) ([4]; Experiment wp108): −0.4196
- logFC ([4]; experiment wp108): −0.4196
- logFC ([4]; experiment wp131): −0.5351
- logFC of RPS6KA4 (O75676) ([4]; experiment wp131): −0.5351

SMILES: C[C@@H]1C[C@@H](O)c2ncnc(N3CCN(C(=O)[C@H](CNCCCCCCCCCCc4cccc5c4C(=O)N(C4CCC(=O)NC4=O)C5=O)c4ccc(Cl)cc4)CC3)c21 (stereo partly shown) [INY.03.041.01]
- logFC ([5]; experiment wp118): −2.769
- logFC ([5]; experiment wp118, direction down): −2.769
- logFC ([5]; experiment wp135, 4 hr): −1.925
- logFC ([5]; experiment wp135, 4 hr, direction down): −1.925

SMILES: CC(C)S(=O)(=O)c1ccccc1Nc1nc(Nc2ccc(N3CCN(CCOCCNC(=O)CNc4cccc5c4C(=O)N(C4CCC(=O)NC4=O)C5=O)CC3)cc2)ncc1Cl (stereo not shown) [SK.3.91]
- logFC ([5]; experiment wp105): −0.7783
- logFC [5, 9]: −0.7783
- logFC PTK6 (Q13882) [3]: −0.4171
- logFC [3]: −0.4171
- logFC ([6]; experiment wp103): −0.4564
- logFC ([6]; experiment wp103, direction down): −0.4564
- logFC ([6]; experiment wp105): −0.3908
- logFC [6, 9]: −0.3908
- logFC ([6]; experiment wp107): −0.6368
- logFC ([6]; experiment wp107, direction down): −0.6368
- logFC ([6]; experiment wp133, 1 hr): −0.4397
- logFC ([6]; experiment wp133, 1 hr, direction down): −0.4397
- logFC ([6]; experiment wp133, 2 hr): −0.4411
- logFC ([6]; experiment wp133, 2 hr, direction down): −0.4411
- logFC ([6]; experiment wp133, 4 hr): −0.7303
- logFC ([6]; experiment wp133, 4 hr, direction down): −0.7303
- logFC ([6]; experiment wp160, 4 hr): −0.4294
- logFC ([6]; experiment wp160, 4 hr, direction down): −0.4294
- logFC ([7]; experiment wp105): −0.4077
- logFC ([7]; experiment wp107): −1.103
- logFC ([7]; experiment wp133, 4 hr): −0.8007
- logFC of BMPR1A (P36894) ([7]; Experiment wp107): −1.103
- logFC of BMPR1A (P36894) ([7]; experiment wp105): −0.4077
- logFC of BMPR1A (P36894) ([7]; experiment wp133, 4 hr): −0.8007

SMILES: CC(C)S(=O)(=O)c1ccccc1Nc1nc(Nc2ccc(N3CCN(CCOCCOCCNC(=O)CNc4cccc5c4C(=O)N(C4CCC(=O)NC4=O)C5=O)CC3)cc2)ncc1Cl (stereo not shown) [TL12.186]
- logFC [2]: −0.4934
- logFC of COQ8B (Q96D53-1) [2]: −0.4934
- logFC ([6]; experiment wp131): −0.3783
- logFC ([6]; experiment wp131, direction down): −0.3783
- logFC ([7]; experiment wp131): −0.8334
- logFC ([7]; experiment wp137): −0.6566
- logFC of BMPR1A (P36894) ([7]; experiment wp131): −0.8334
- logFC of BMPR1A (P36894) ([7]; experiment wp137): −0.6566

SMILES: NC(=O)c1c(F)cccc1Nc1nc(Nc2ccc(S(=O)(=O)NCCOCCOCCOCCOCCNc3cccc4c3C(=O)N(C3CCC(=O)NC3=O)C4=O)cc2)ncc1Br (stereo not shown) [TMX.02.138]
- logFC [8]: −1.544
- logFC of IRAK3 (Q9Y616) [8]: −1.544

SMILES: Cc1cc(Nc2ncc(Br)c(Nc3cccc(F)c3C(N)=O)n2)ccc1S(=O)(=O)NCCOCCOCCOCCOCCNc1cccc2c1C(=O)N(C1CCC(=O)NC1=O)C2=O (stereo not shown) [TMX.02.174]
- logFC [8]: −1.343
- logFC of IRAK3 (Q9Y616) [8]: −1.343
- logFC ([4]; experiment wp146): −1.5
- logFC of RPS6KA4 (O75676) ([4]; experiment wp146): −1.5
